In patent publication US10292976B2, “Anti-malarial agent” (RIKEN, priority 2014, dated 2019):
Where two headings read alike, the source gives them in different places.

Tests used:
[1] = Cytotoxicity by WST-8 assay, HEK293; type: cell-based, human; settings: human, HEK293 cells, Table 3, 48 hours
Protocol: (§1) Subsequently, the following cell types: HL60 (human promyelocytic leukemia cells), HeLa (human cervical cancer cells), C3H10T1/2 (murine multipotential mesenchymal cells), and HEK293 (human embryonic kidney 293 cells); were treated with metal complexes M-L6 (M=Zn, Fe, Cu, Co, Ni, and Mn) for 48 hours, and then subjected to WST-8 assay to perform evaluation of the cytotoxicity of each kind of metal complex.

[2] = test system: mouse malaria parasites (Plasmodium berghei ANKA strain); assay: Life-prolonging effect in malaria-infected mice, oral administration; type: in vivo; settings: oral 200 mg/kg on Day 1, Day 3, and Day 6
Protocol: (§2) To mice (7 weeks old, Balb/c, male), erythrocytes infected with mouse malaria parasites (Plasmodium berghei ANKA strain) (total number of erythrocytes per mouse, about 10^7; rate of malaria-infected erythrocytes, 0.3%) were intraperitoneally injected. L6 was administered (20 mg/kg, intraperitoneal injection) to each of the thus obtained malaria-infected mice, and the rate of malaria-infected erythrocytes was measured. As a result, on Day 2 to Day 6 after the infection, the infection rate tended to increase in the negative control to which only DMSO was administered. […] The effect of L6 to reduce the infection rate was almost equivalent to the effect of an existing drug, chloroquine (CQ).
To malaria-infected mice obtained by the same procedure as in Experiment 4, an aqueous solution of L6 or the zinc complex Zn-L6 was orally administered (at a dose of 200 mg/kg on Day 1, Day 3, and Day 6; N=6), and changes in the number of surviving individuals were investigated. […] That is, it is thought that, by formation of metal complex with zinc ion, L6 can remarkably suppress the toxicity in vivo while sufficiently maintaining the antimalarial activity.

[3] = Cytotoxicity by WST-8 assay, tsNRK; type: cell-based; settings: rat, tsNRK cells
Protocol: (§3) After treating various kinds of cells (HEK293T: human embryonic kidney cells; HeLa: human cervical cancer cells; NIH3T3: mouse fibroblast cells; tsNRK: rat kidney cells; and 3Y1: rat fibroblasts) with a metal chelator for 48 hours, the cytotoxicities of the cells were evaluated by WST-8 assay.

[4] = test system: Plasmodium falciparum: 3D7 strain; assay: Antimalarial activity by LDH assay, 3D7 strain; type: cell-based; settings: for IC50: Plasmodium falciparum
Protocol: Compounds that chelate metal ions in various modes (L1 to L25 in FIG. 1) were selected, and their antimalarial activities were evaluated by LDH assay. Since infection with malaria causes an increase in the LDH activity, the evaluation can be made based on the criteria that the lower the detected LDH activity, the higher the antimalarial activity.
(§4) The LDH assay was carried out according to the following procedure. That is, 0.5 μL of a solution of each compound in DMSO was added to 100 μL of a culture liquid of erythrocytes (88% RPMI solution; 2% erythrocytes, provided by the Japanese Red Cross Society; and 10% human serum, provided by the Japanese Red Cross Society) infected with falciparum malaria parasites (Plasmodium falciparum: 3D7 strain) (infection rate of erythrocytes, 0.3%). The resulting culture liquid was subjected to culture in a 96-well plate under an atmosphere of 5% CO2, 5% O2, and 90% N2 at 37° C. for three days. Subsequently, the culture liquid was cooled at −80° C. for three hours, and then returned to room temperature. After addition of 150 μL of an LDH enzyme reaction liquid (0.15 mg/mL diaphorase, 37.5 μL/mL of 50% sodium lactate, 0.17 mg/mL NBT, 0.11 mg/mL APAD, 0.16 mL/mL of 1 M Tris-HCl (pH 8), and 8.3 μL/mL of Tween 20), the absorbance at 620 nm was measured.
By the same procedure as in Experiment 1, erythrocytes infected with malaria were treated with L6 (about 40 nM) together with iron ion (about 50 μM), copper ion (about 1 μM), or zinc ion (about 10 μM), and the antimalarial activity was evaluated by LDH assay.
(§5) According to the same procedure as in Experiment 1, the antimalarial activities of metal complexes (M-L6) synthesized by mixing various kinds of metal ions (MSO4: M=Zn, Fe, Cu, Co, Ni, or Mn) with L6 at a molar ratio of 1:1 were evaluated by LDH assay.

[5] = test system: mouse malaria parasites (Plasmodium berghei ANKA strain); assay: Effect to suppress malaria infection in malaria-infected mice; type: in vivo; settings: Balb/c mice, 20 mg/kg intraperitoneal injection, Day 2 to Day 6 after infection
Protocol: as §2

[6] = Cytotoxicity by WST-8 assay, C3H10T1/2; type: cell-based, murine; settings: mouse, C3H10T1/2 cells, Table 3, 48 hours
Protocol: as §1

[7] = Cytotoxicity by WST-8 assay, NIH3T3; type: cell-based; settings: mouse, NIH3T3 cells, NIH3T3, 48 hours
Protocol: as §3

[8] = Cytotoxicity by WST-8 assay, 3Y1; type: cell-based; settings: rat, 3Y1 cells, 3Y1, 48 hours
Protocol: as §3

[9] = test system: Dd2 strain (drug-resistant malaria parasites); assay: Antimalarial activity by LDH assay, Dd2 strain; type: cell-based, Plasmodium falciparum; settings: Plasmodium falciparum
[10] = Cytotoxicity by WST-8 assay, HL60; type: cell-based, human; settings: human, HL60 cells, Table 3, 48 hours
Protocol: as §1

[11] = test system: chloroquine-resistant strain; assay: Antimalarial activity against a chloroquine-resistant strain; type: cell-based; settings: result in words
[12] = Cytotoxicity by WST-8 assay, HeLa; type: cell-based, human; settings: human, HeLa cells
Protocol: as §3, §1

[13] = test system: drug-resistant malaria parasite K1 strain; assay: Antimalarial activity by LDH assay, K1 strain; type: cell-based, Plasmodium falciparum; settings: Plasmodium falciparum
Protocol: as §4, §5
According to the same procedure as in Experiment 1, the antimalarial activities of L18 and di-2-pyridylketone 4,4-dimethyl-3-thiosemicarbazone (Sigma) against the malaria parasite 3D7 strain and the drug-resistant malaria parasite K1 strain were evaluated by LDH assay.
According to the same procedure as in Experiment 1, the antimalarial activities of 4′-(4-Pyridyl)-2,2′:6′,2″-terpyridine (Tokyo Chemical Industry) against the malaria parasite 3D7 strain and the drug-resistant malaria parasite K1 strain were evaluated by LDH assay.

[14] = Cytotoxicity by WST-8 assay, HEK293T; type: cell-based; settings: human, HEK293T cells
Protocol: as §3

[15] = test system: human cells (HEK293T and HeLa); assay: Cytotoxicity by WST-8 assay, summary for human cells; type: cell-based; settings: 48 hours, read-out: concentration at which toxicity is exerted (IC50 value)
Protocol: as §3

[16] = test system: mouse malaria parasites (Plasmodium berghei ANKA strain); assay: Life-prolonging effect after infection with malaria, intraperitoneal; type: in vivo; settings: malaria-infected mice, 20 mg/kg intraperitoneal injection

Compound: c1ccc(CN(Cc2ccccn2)Cc2ccccn2)nc1 [L6, Tris(2-pyridylmethyl)amine]
- IC50 at 48 h [1]: 6000 nM
- toxicity in vivo [2]: influence of toxicity appears
- IC50 at 48 h ([3]; 1st measurement): 1880 nM
- IC50 at 48 h ([3]; 2nd measurement): 1900 nM
- antimalarial activity (LDH assay, FIG. 2) ([4]; 10 nM to 10 μM, result in words): remarkable antimalarial activity
- antimalarial activity of L6 together with added metal ion ([4]; L6 about 40 nM with excess zinc ion (about 10 μM)): suppression of the antimalarial activity was found to some extent
- IC50 ([4]; 3D7, 3D7 strain, values in text, read-out: IC50 value for the antimalarial activity based on the LDH assay): ~31 nM
- IC50 ([4]; 3D7, read-out: IC50 antimalarial activity, 3D7): 84 nM
- rate of malaria-infected erythrocytes (infection rate) [5]: infection rate could be remarkably suppressed
- IC50 at 48 h [6]: 5700 nM
- IC50 at 48 h ([7]; 1st measurement): 1800 nM
- IC50 at 48 h ([7]; 2nd measurement): 1950 nM
- IC50 at 48 h ([8]; 1st measurement): 2420 nM
- IC50 at 48 h ([8]; 2nd measurement): 3870 nM
- IC50 ([9]; DD2, read-out: IC50 antimalarial activity against the Dd2 strain): 80 to 160 nM
- IC50 ([9]; DD2, read-out: IC50 antimalarial activity, Dd2): 144 nM
- IC50 at 48 h [10]: 1800 nM
- antimalarial activity against a chloroquine-resistant strain [11]: exhibit antimalarial activity also against a chloroquine-resistant strain
- IC50 at 48 h ([12]; HeLa, 48 hours, 1st measurement (Table 1), read-out: IC50 value, cytotoxicity): 5610 nM
- IC50 at 48 h ([12]; HeLa, 48 hours, 2nd measurement (Table 1), read-out: IC50 value, cytotoxicity): 5160 nM
- IC50 at 48 h ([12]; Table 3, 48 hours, WST-8, read-out: IC50 cytotoxicity, HeLa): 5800 nM
- IC50 ([13]; read-out: IC50 antimalarial activity against the K1 strain): 80 to 160 nM
- IC50 ([13]; read-out: IC50 antimalarial activity, K1): 82 nM
- IC50 at 48 h ([14]; 1st measurement): 5080 nM
- IC50 at 48 h ([14]; 2nd measurement): 5310 nM
- IC50 [15]: 5080 to 5610 nM
- life-prolonging effect (number of surviving individuals) [16]: remarkable life-prolonging effect
